Blank lines part the entries; values can stand above or below the compound they belong to.
Assays:
[1] = tested on: HL-60 cells enriched with ^63Cu; assay: Cellular 63Cu and 65Cu levels by ICP-MS; format: cell-based, human; conditions: 100 nM, 0, 0.5, 3 and 9 hours, 10% FBS medium
Protocol: A complex of elesclomol with ^65Cu was prepared. HL-60 cells enriched with ^63Cu were treated with 100 nM elesclomol-^65Cu or 100 nM free ^65Cu for 0, 0.5, 3 and 9 hours in 10% FBS medium. Cellular ^63Cu and ^65Cu levels were measured by inductively coupled plasma mass spectroscopy (ICP-MS).

HL-60 cells [2] = assay: Cellular copper and elesclomol levels after elesclomol incubation; format: cell-based, human; conditions: 100 nM, 3 hours
Protocol: PBMCs and HL-60 cells were incubated with a vehicle (DMSO) or with 100 nM elesclomol for 3 hours. Subsequent to incubation, cellular copper levels and elesclomol levels for PBMCs and HL-60 cells were determined and are shown in FIG. 3.

[3] = Pharmacokinetics of I.V. bolus and continuous infusion (Alzet pump) in mice; format: in vivo, Mouse
Protocol: (§2) Mice received elesclomol salt administered in a single I.V. bolus dose of 50 mg/kg. Mice also received elesclomol salt administered by continuous infusion via Alzet pump. The pump was filled with a 40 mg/mL solution of elesclomol salt, and the solution was administered at 1 ml/hr, for a total daily dose of 32 mg/kg/day, based on average body weight of 30 g. The solution was delivered continuously for 7 days, and exposure was calculated from plasma levels collected at 70 hours post pump implantation.

[4] = Mouse toxicity study of elesclomol salt continuously administered via Alzet pump; set-up: species or system mice of strain CD1; conditions: in vivo
Protocol: A total of 15 mice of strain CD1 were used for the toxicity study, of which 10 were in the elesclomol salt treatment group, and 5 were in the control group. Alzet pump was filled with a total of 200 μl of infusion solution and implanted subcutaneously within 1-2 hours. The infusion solution was continuously delivered for 7 days, and the pump was replaced with a new pump at day 8.

[5] = Pharmacokinetics of 1-hour infusion in humans; conditions: Human, 200 mg/m^2
Protocol: as §2

HL-60 cells [6] = assay: Subcellular copper content by BCA assay after elesclomol-Cu treatment; format: cell-based, human; conditions: HL-60 cells treated for 2 hours
Protocol: (§1) Human peripheral blood mononuclear cells (PBMCs) from 3 independent donors and human promyelotic tumor cell line HL-60 were treated with the elesclomol-Cu complex for 2 hours. Cells were subsequently fractionated into cytosolic, nuclear or mitochondrial fractions and the subcellular copper content was determined by BCA assay.

[7] = tested on: peripheral blood mononuclear cells (PBMCs); assay: as above; format: cell-based, human; conditions: PBMCs from 3 donors treated for 2 hours
Protocol: as §1

[8] = tested on: mitochondria isolated from HL-60 cells; assay: MitoSox Red ROS assay in isolated mitochondria; format: cell-based, human; conditions: HL-60-derived mitochondria, 0.2 μM and 1 μM, 30 minutes
Protocol: Mitochondria isolated from PBMCs or from HL-60 cells were treated for 30 minutes with either DMSO, free copper (CuCl2) at the concentrations of 0.2 μM and 1 μM, disulfiram-Cu complex (DSF-Cu) at the concentrations of 0.2 μM and 1 μM, and elesclomol-Cu complex at the concentrations of 0.2 μM and 1 μM. Subsequent to incubation, ROS levels were measured by MitoSox Red. The results of the MitoSox Red assay are shown in FIG. 2 as mean±SD of experiments with PBMCs isolated from three independent donors or with three individual experiments with HL-60.

SMILES: CN1C(c2ccccc2)=[S][65Cu]23[S]=C(c4ccccc4)N(C)[N]2C(=O)CC(=O)[N]13 [elesclomol-^65Cu]
- accumulation of ^63Cu in cells [1]: cause accumulation of ^63Cu in HL-60 cancer cells
- amount of copper accumulated in the cells versus length of exposure [1]: directly proportional to the length of time

SMILES: CN(NC(=O)CC(=O)NN(C)C(=S)c1ccccc1)C(=S)c1ccccc1 [elesclomol, Elesclomol]
- cellular copper levels (HL-60 cells [2]; HL-60 cells): remarkably and selectively elevated
- cellular elesclomol levels (HL-60 cells [2]; HL-60 cells compared with PBMCs): slightly lower than that in PBMCs
- Exposure/day ([3]; Mouse, elesclomol salt I.V. bolus, 50 mg/kg): 5140 h * ng/mL/d
- Exposure/day ([3]; Mouse, elesclomol salt by continuous infusion (pump), 32 mg/kg/d, calculated from plasma levels at 70 hours post pump implantation): 1183 h * ng/mL/d
- overall toxicity / adverse effects [4]: not associated with acute toxicity
- Exposure/day [5]: 4938 h * ng/mL/d

- Exposure/day ([3]; mouse, in vivo, 32 mg/kg/day): 516 h * ng/mL/d
- Exposure/day ([3]; mouse, in vivo, iv, 50 mg/kg): 670 h * ng/mL/d
SMILES: CN1C(c2ccccc2)=[S][Cu]23[S]=C(c4ccccc4)N(C)[N]2C(=O)CC(=O)[N]13 [Elesclomol-Cu]
- relative copper levels in the nuclear, cytosolic and mitochondrial fractions (HL-60 cells [6]): copper levels increased only in HL-60 cells, particularly, in the mitochondrial fraction
- relative copper levels in the nuclear, cytosolic and mitochondrial fractions [7]: increased only in HL-60 cells
- ROS levels (MitoSox Red) [8]: induces ROS in HL-60-derived mitochondria

From patent publication US20140329892A1, “ADMINISTRATION OF A BIS(THIOHYDRAZIDE AMIDE) COMPOUND FOR TREATING CANCERS” (priority 2011, published 2014)
